Data from patent US4816447A, “Anti-viral guanine compounds” (priority 1984, dated 1989).

Assays:
Varicella-Zoster virus = assay: Varicella-Zoster plaque reduction assay on human MRC-5 monolayers; format: cell-based, Varicella-Zoster (Strain KMcC); human MRC-5 cells; details: for minimal effective concentration: Human alphaherpesvirus 3, MRC5, Strain KMcC, plaque reduction, read-out: Minimum Effective Concentration; for comparative activity: compound of formula II vs acycloguanosine
Description: ^b Plaque reduction assay on human MRC5 cell monolayers.

HSV-1 [1] = assay: Orofacial HSV-1 infection of hairless mice, oral or topical treatment (Table VI); format: in vivo, HSV-1; HRS mice; details: for minimal effective dose: Human alphaherpesvirus 1, oral treatment, read-out: Min. Effective Dose; for minimal effective dose / Min. Effective Dose: orofacial infection; for Min. Effective Dose: topical treatment
HSV-2 [2] = assay: Vaginal HSV-2 infection in mice, oral treatment (Table VI); format: in vivo, HSV-2; ICR/Ha mice; details: for minimal effective dose: Human alphaherpesvirus 2, vaginal infection, oral treatment, read-out: Min. Effective Dose
HSV-2 [3] = assay: Therapeutic efficacy against vaginal HSV-2 infection of mice (Table VII); format: in vivo, HSV-2; mice; details: for Survivors/Total: 0.55 μmoles oral gavage twice daily; for therapeutic effectiveness, treatment initiated up to 72 hours after infection: vaginal HSV-2
Procedure: d. HSV-2 vaginal infection in mice is progressive from local acute infection of the genital area to limb paralysis and eventual death. This is a consistent, reproducible model, but is more virulent and progressive than the human genital disease. Drug efficacy is determined ultimately by extension of animal survival time, and also by the limitation of progression of disease from acute local through paralysis to death. Animals are challenged using in excess of 10 lethal equivalent doses of HSV-2. This model was used to evaluate dosing by oral gavage.

HSV-1 PAA ®1 = details: HSV-1 PAA R1
[4] = target: thymidine kinase, isolated from HSV1-infected HeLa cells (Human herpesvirus 1, UniProt P0DTH5); assay: Competition between thymidine and acycloguanosine or compound of formula II for phosphorylation by the virus-induced thymidine kinase; format: biochemical; details: for Percent monophosphate: 1200 min
Chain of thymidine kinase, isolated from HSV1-infected HeLa cells (P0DTH5 whole entry): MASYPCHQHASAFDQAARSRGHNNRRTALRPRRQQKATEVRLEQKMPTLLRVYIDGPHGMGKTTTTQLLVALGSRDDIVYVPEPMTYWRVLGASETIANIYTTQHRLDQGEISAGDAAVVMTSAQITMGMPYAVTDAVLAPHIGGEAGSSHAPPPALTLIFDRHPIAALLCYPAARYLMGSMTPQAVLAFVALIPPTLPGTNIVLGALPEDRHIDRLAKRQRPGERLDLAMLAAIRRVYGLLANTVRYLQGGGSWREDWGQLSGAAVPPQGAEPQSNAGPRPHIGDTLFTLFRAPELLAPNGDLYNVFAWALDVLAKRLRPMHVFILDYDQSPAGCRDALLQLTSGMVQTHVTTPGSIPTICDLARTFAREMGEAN

[5] = target: HSV1-induced thymidine kinase (Human alphaherpesvirus 1 strain 17, UniProt P0DTH5); assay: Kinetic parameters with purified viral thymidine kinase; format: biochemical; details: compound of formula II to acycloguanosine
Chain of HSV1-induced thymidine kinase (P0DTH5 whole entry): as above

Cytomegalovirus = Cytomegalovirus plaque reduction assay on human MRC-5 monolayers; format: cell-based, Cytomegalovirus (Towne Strain); human MRC-5 cells
Procedure: The compound of formula II was effective in suppressing cytomegalovirus plaque formation on MRC-5 cell monolayers using 0.1 to 0.6 μg/ml.
^d Plaque reduction assay on human MRC5 cell monolayers

HSV-1 (383R1) [6] = format: cell-based; details: HSV-1 (383R1) vs wild type
HSV-1 (383R1) [7] = assay: Phosphorylation capacity of HSV-1 (383R1); format: biochemical
HSV1 = assay: In vitro assay, viral cytopathology of HSV1 in primary rabbit kidney cells; format: cell-based; details: Human alphaherpesvirus 1; days 5 and 7; read-out: Min. Effective Dose against HSV1
HSV2 = assay: In vitro assay, viral cytopathology of HSV2 in primary rabbit kidney cells; format: cell-based; details: Human alphaherpesvirus 2; days 5 and 7; read-out: Min. Effective Dose against HSV2
[8] = test system: primary rabbit kidney cell cultures; assay: Toxicity controls in primary rabbit kidney cell cultures; format: cell-based; details: at 100 μg/ml
HSV1 (Strain Schooler) = assay: In vivo assay, intraperitoneal HSV1 infection of mice, subcutaneous treatment (Table IV); design: species or system HSV1; ICR/Ha mice; details: for Percent Survival: 15 days
Procedure: Twenty gram ICR/Ha mice were infected with approximately 100 lethal doses (100LD50) of HSV1 (Strain Schooler) by the intraperitoneal route. Groups of 10 infected animals were treated twice daily for four days starting immediately after infection by subcutaneous injection at final daily doses of 50, 12.5, 3.1, 0.8, 0.2, 0.05 and 0.0125 mg/kg of potassium 9-(1,3-dihydroxy-2-propoxymethyl)guanine cyclic monophosphate. The mice were observed daily for 15 days at the same time each day and the day of death recorded for each animal.

equine herpes virus = assay: Antiviral activity against equine herpes virus; format: cell-based; details: data not shown, read-out: ED50 (the source's name)
[9] = test system: feline rhinotracheitis virus; assay: Antiviral activity against feline rhinotracheitis virus; format: cell-based; details: data not shown, read-out: ED50 (the source's name)
influenza A = assay: RNA virus replication, influenza A; format: cell-based
vesicular stomatitis = format: cell-based
polio = format: cell-based
HSV-1 [10] = assay: Intracerebral HSV-1 infection in weanling mice, subcutaneous treatment (Table VI); format: in vivo, HSV-1; ICR/Ha weanling mice
[11] = treatment initiated 0 hrs after infection
[12] = treatment initiated 24 hrs after infection
[13] = treatment initiated 48 hrs after infection
[14] = treatment initiated 72 hrs after infection

## Nc1nc2c(ncn2COCCO)c(=O)[nH]1 [Acycloguanosine, 9-(2-hydroxyethoxymethyl)guanine, reference compound]
Varicella-Zoster virus
  minimal effective concentration: 1 to 2 µg/mL
  comparative activity: equally active
HSV-1 [1]
  minimal effective dose: 12.5 mg/kg/day
  Min. Effective Dose: 0.25-1.0%
HSV-2 [2]
  minimal effective dose: 12.5 to 50 mg/kg/day
HSV-2 [3]; [11]
  Survivors/Total: 1/10
HSV-2 [3]; [12]
  Avg. Survival Days (confidence interval): 12.1 (8.8, 17.3) Days
  Survivors/Total: 3/10
HSV-2 [3]; [13]
  Avg. Survival Days (confidence interval): 12.4 (8.2, 20.7) Days
  Survivors/Total: 5/10
HSV-2 [3]; [14]
  Avg. Survival Days (confidence interval): 9.0 (7.1, 11.3) Days
  Survivors/Total: 1/10
HSV-2 [3]
  therapeutic effectiveness, treatment initiated up to 72 hours after infection: ineffective
HSV-1 PAA ®1
  Sensitivity (S) or Resistance (R): R

## Nc1nc2c(ncn2COC(CO)CO)c(=O)[nH]1 [Compound of Formula II, 9-(1,3-Dihydroxy-2-propoxymethyl)guanine]
[4]; large excess of thymidine
  phosphorylation in presence of a large excess of thymidine: is phosphorylated by the viral thymidine kinase even in the presence of a large excess of thymidine
[4]; plus 2.5 mM thymidine
  Percent monophosphate: 23%
[4]; without thymidine
  Percent monophosphate: 93%
[5]
  relative efficiency as substrate (Vmax /Km) vs acycloguanosine: 30 to 1
Varicella-Zoster virus
  minimal effective concentration: 1 to 2 µg/mL
  comparative activity: equally active
Cytomegalovirus
  calculated average relative potency to acycloguanosine (95% CI): 28.6
HSV-1 (383R1) [6]
  less susceptible than wild type: approximately 100 fold
HSV-1 (383R1) [7]
  phosphorylation by HSV-1 (383R1): incapable of phosphorylation

## Nc1nc2c(ncn2COC2COP(=O)(O)OC2)c(=O)[nH]1 (centres unmarked) [Cyclic Monophosphate, Potassium 9-(1,3-dihydroxy-2-propoxymethyl)guanine cyclic monophosphate]
HSV1
  minimal effective concentration: 12.5 to 25 µg/mL
HSV2
  minimal effective concentration: 50 to 100 µg/mL
[8]
  Toxicity: Not tox.
HSV1 (Strain Schooler); Expt. 1, 0.2 mg/kg/day s.c.
  Ave. Survival Time: 13.5 days
  Percent Survival: 70%
HSV1 (Strain Schooler); Expt. 1, 0.8 mg/kg/day s.c.
  Ave. Survival Time: 10.5 days
  Percent Survival: 40%
HSV1 (Strain Schooler); Expt. 1, 3.1 mg/kg/day s.c.
  Ave. Survival Time: 10.7 days
  Percent Survival: 20%
HSV1 (Strain Schooler); Expt. 1, 12.5 mg/kg/day s.c.
  Ave. Survival Time: 19.5 days
  Percent Survival: 100%
HSV1 (Strain Schooler); Expt. 1, 50 mg/kg/day s.c.
  Ave. Survival Time: 19.5 days
  Percent Survival: 100%
HSV1 (Strain Schooler); Expt. 2, 0.0125 mg/kg/day s.c.
  Ave. Survival Time: 6.3 days
  Percent Survival: 10%
HSV1 (Strain Schooler); Expt. 2, 0.05 mg/kg/day s.c.
  Ave. Survival Time: 6.0 days
  Percent Survival: 0%
HSV1 (Strain Schooler); Expt. 2, 0.2 mg/kg/day s.c.
  Ave. Survival Time: 8.3 days
  Percent Survival: 30%
HSV1 (Strain Schooler); Expt. 2, 0.8 mg/kg/day s.c.
  Ave. Survival Time: 7.4 days
  Percent Survival: 0%
HSV1 (Strain Schooler); Expt. 2, 3.1 mg/kg/day s.c.
  Ave. Survival Time: 11.5 days
  Percent Survival: 50%
HSV1 (Strain Schooler); Expt. 2, 12.5 mg/kg/day s.c.
  Ave. Survival Time: 15.0 days
  Percent Survival: 60%
Equine herpes virus
  EC50: ~1 µg/mL
[9]
  EC50: ~1 µg/mL
Influenza A
  effect on RNA virus replication: not effective
Vesicular stomatitis
  effect on RNA virus replication: not effective
polio
  effect on RNA virus replication: not effective
HSV-1 [10]; Human alphaherpesvirus 1, sc, intracerebral infection, subcutaneous treatment, read-out: Min. Effective Dose
  minimal effective dose: 0.8 mg/kg/day
HSV-1 [10]; intracerebral
  efficacy relative to acyclovir by minimum effective dose: consistently more efficacious than acyclovir
HSV-1 [1]
  minimal effective dose: 3.1 mg/kg/day
  Min. Effective Dose: 0.06%
HSV-1 [1]; orofacial
  efficacy relative to acyclovir by minimum effective dose: consistently more efficacious than acyclovir
HSV-2 [2]
  minimal effective dose: 0.8 mg/kg/day
HSV-2 [2]; vaginal
  efficacy relative to acyclovir by minimum effective dose: consistently more efficacious than acyclovir
HSV-2 [3]; [11]
  Survivors/Total: 8/10
HSV-2 [3]; [12]
  Survivors/Total: 3/10
HSV-2 [3]; [13]
  Survivors/Total: 2/10
HSV-2 [3]; [14]
  Survivors/Total: 3/10
HSV-2 [3]
  therapeutic effectiveness, treatment initiated up to 72 hours after infection: therapeutically effective
